This passage reports EC50 results from BindingDB's records for doi:10.1016/j.bmcl.2014.06.082 (Friedrich Alexander University, 2014).

This assay concerns the target T1, G protein-coupled receptor (Human cytomegalovirus, UniProt Q9IP65).
T1 sequence (Q9IP65 whole entry): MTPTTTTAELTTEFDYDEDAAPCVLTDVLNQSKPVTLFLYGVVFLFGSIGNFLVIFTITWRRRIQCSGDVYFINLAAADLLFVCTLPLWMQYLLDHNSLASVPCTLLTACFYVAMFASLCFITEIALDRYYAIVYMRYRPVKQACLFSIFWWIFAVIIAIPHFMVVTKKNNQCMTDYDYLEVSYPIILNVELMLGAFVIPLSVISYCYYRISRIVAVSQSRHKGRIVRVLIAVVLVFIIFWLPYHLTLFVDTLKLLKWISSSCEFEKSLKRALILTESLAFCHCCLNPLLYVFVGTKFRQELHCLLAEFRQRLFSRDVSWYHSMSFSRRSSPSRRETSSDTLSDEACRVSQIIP
Nature of the assay: Allosteric modulatory activity at FLAG-tagged human cytomegalovirus US28 receptor delta300 mutant expressed in HEK293T cells by PathDetectElk1 assay.

Broadly, the EC50 is the midpoint of the concentration-response curve. A low value points to a more potent agent. The compound `N#CC(CCCN1CCC(O)(c2ccc(Cl)cc2)CC1)(c1ccccc1)c1ccccc1` [5-[4-(4-Chloro-phenyl)-4-hydroxy-piperidin-1-yl]-2,2-diphenyl-pentanenitrile] displayed an EC50 of less than 10 µM.
With `CCCCCCCCCC(=O)N(CCN(C)C)CC1(C)Cc2ccccc2C(=O)N1` (configuration not stated) the figure was less than 10 µM.
